Experimental data from ChEMBL document CHEMBL1201862, “PubChem BioAssay data set” (2004).
pIC50: −log10 of the molar value. Activity calls are given as the source filed them.

Columns and labels:
[1] = molecular target: T1, Tyrosine-protein phosphatase non-receptor type 7 (Homo sapiens, UniProt P35236); assay type: functional
T1 sequence (P35236 whole entry): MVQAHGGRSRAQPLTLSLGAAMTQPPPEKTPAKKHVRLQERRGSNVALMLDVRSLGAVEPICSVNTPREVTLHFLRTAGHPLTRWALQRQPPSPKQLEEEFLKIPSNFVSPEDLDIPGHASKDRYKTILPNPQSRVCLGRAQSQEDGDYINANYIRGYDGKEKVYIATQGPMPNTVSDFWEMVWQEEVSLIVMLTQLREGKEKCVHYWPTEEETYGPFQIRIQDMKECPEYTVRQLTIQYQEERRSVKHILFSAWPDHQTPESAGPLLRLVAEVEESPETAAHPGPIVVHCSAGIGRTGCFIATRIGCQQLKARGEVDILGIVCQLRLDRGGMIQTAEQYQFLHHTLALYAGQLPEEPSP

[2] = molecular target: T2, Tyrosine-protein phosphatase non-receptor type 22 (Homo sapiens, UniProt Q9Y2R2); assay type: functional
T2 sequence (Q9Y2R2 whole entry): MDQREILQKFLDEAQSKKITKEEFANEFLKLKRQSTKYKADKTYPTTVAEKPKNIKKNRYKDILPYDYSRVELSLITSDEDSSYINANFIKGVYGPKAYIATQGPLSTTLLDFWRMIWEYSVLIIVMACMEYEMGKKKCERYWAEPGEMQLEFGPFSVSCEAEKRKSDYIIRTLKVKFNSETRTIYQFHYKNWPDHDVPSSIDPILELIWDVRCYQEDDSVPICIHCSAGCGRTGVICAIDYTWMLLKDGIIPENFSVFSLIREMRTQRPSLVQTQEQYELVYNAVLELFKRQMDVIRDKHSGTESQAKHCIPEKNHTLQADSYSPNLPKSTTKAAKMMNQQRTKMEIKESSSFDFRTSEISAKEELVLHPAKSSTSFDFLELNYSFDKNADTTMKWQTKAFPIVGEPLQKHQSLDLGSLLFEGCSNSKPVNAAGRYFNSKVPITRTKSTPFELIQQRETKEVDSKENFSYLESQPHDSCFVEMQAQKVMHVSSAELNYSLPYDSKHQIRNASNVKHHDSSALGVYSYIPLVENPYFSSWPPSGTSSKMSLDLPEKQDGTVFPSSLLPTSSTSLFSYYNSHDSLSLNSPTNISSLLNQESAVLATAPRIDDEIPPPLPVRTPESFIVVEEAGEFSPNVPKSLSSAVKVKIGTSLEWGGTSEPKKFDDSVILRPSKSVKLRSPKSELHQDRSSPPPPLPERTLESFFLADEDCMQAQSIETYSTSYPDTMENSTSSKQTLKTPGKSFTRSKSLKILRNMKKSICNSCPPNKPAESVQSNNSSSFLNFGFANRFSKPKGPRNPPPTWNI

[3] = molecular target: T2, Tyrosine-protein phosphatase non-receptor type 22; assay type: functional; remark: listed apart in the source
Fatty acid synthase [4] = molecular target: T3, Fatty acid synthase (Homo sapiens, UniProt P49327); experiment: inhibition of human FAS-TE enzyme activity – biochemical, endpoint fluorescence intensity, uHTS hits, dose response (AID 624327); assay type: functional;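 also: fluorescence from hydrolysis of an O-methyl fluorescein acyl ester substrate by the enzyme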
Fatty acid synthase [5] = molecular target: T3, Fatty acid synthase; experiment: inhibition of human FAS-TE enzyme activity – biochemical, kinetic fluorescence intensity, dose response (AID 624326); assay type: functional;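 also: rate of fluorescence rise from hydrolysis of a fluorogenic O-methyl fluorescein ester substrate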
[6] = (§1) Late stage assay provider results from the probe development effort to identify inhibitors of Protein Phosphatase Methylesterase 1 (PME-1): luminescence-based biochemical dose response assay to determine cytotoxicity of inhibitor compounds. [Related pubchem assays (depositor defined):AID2130, AID2143, AID2171, AID2174, AID2177, AID2232, AID2233, AID2291, AID2363, AID2365, AID2366, AID2368, AID2369, AID2371, AID463124, AID463130, AID463131, AID463132, AID463146, AID463149] Panel member name: Fetal Calf Serum; assay type: toxicity
[7] = as §1, with “Serum-free Media” for “Fetal Calf Serum”; assay type: toxicity
H9c2 = experiment: cells; assay type: functional, cell-based; details: Rattus norvegicus, H9c2, Myocardium;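 also: confirmatory concentration-response retest of ultra-high-throughput screening hits for modulation of myocardial damage; cell death induced by hydrogen peroxide oxidative stress; compound pretreatment for 60 min then peroxide exposure for 2 h; potency is for protecting the cells against peroxide damage rather than for killing them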
[8] = molecular target: T4, Delta-type opioid receptor (Homo sapiens, UniProt P41143); experiment: DOR agonists, SAR follow-up, image-based (AID 2370); assay type: functional
[9] = molecular target: T5, Kappa-type opioid receptor (Homo sapiens, UniProt P41145); assay type: functional
[10] = molecular target: T4, Delta-type opioid receptor; experiment: delta opioid receptor blockers – image-based, SAR follow-up (AID 2357); assay type: functional
[11] = molecular target: T5, Kappa-type opioid receptor; experiment: kappa opioid receptor activation potency – imaging, image-based, SAR follow-up (AID 2359); assay type: functional
[12] = molecular target: T5, Kappa-type opioid receptor; experiment: kappa opioid receptor blockers, image-based, SAR follow-up (AID 2348); assay type: functional
H4 = experiment: Luminescence Cell-Based Dose Response HTS to Identify Activators of 5'UTR Stem-Loop Driven Prion Protein mRNA Translation in H4 Neuroglioblastoma Cells. [Related pubchem assays: 1829 (Project Summary), 1814 (Primary HTS)]; assay type: functional; details: Homo sapiens
[13] = molecular target: T5, Kappa-type opioid receptor; assay type: functional; remark: listed apart in the source
Mu-type opioid receptor [14] = molecular target: T6, Mu-type opioid receptor (Homo sapiens, UniProt P35372); experiment: mu opioid receptor activators, image-based, SAR follow-up (AID 2352); assay type: functional
[15] = molecular target: T5, Kappa-type opioid receptor; experiment: kappa opioid receptor blockers, cell-based, luminescence, beta-arrestin, SAR follow-up (AID 2285); assay type: functional
Mu-type opioid receptor [16] = molecular target: T6, Mu-type opioid receptor; experiment: mu opioid receptor blockers – image-based, SAR follow-up (AID 2420); assay type: functional;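 also: compounds added before stimulation of receptor with agonist DAMGO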
[17] = Luminescence Cell-Based Dose Confirmation HTS to Identify Activators of 5'UTR Stem-Loop Driven Alpha-Synuclein mRNA Translation in H4 Neuroglioblastoma Cells. [Related pubchem assays: 1829 (Project Summary), 1814 (Primary HTS)]; assay type: functional
[18] = Luminescence Cell-Based Dose Response HTS to Identify Activators of Luciferase Translation or Activity in H4 […] Cells. [Related pubchem assays: 1829 (Project Summary), 1814 (Primary HTS)]; assay type: functional
Beta-galactosidase = Beta-galactosidase (Escherichia coli, UniProt Q8VNN2); assay type: functional
Cannabinoid receptor 1 [19] = molecular target: T7, Cannabinoid receptor 1 (Homo sapiens, UniProt P21554); experiment: SAR analysis of agonists of the Cannabinoid Receptor 1 using an Image-Based Assay - Set 2. [Related pubchem assays (depositor defined):AID2013, AID2026]; assay type: functional
Cannabinoid receptor 2 [20] = molecular target: T8, Cannabinoid receptor 2 (Homo sapiens, UniProt P34972); experiment: SAR analysis of antagonists of the Cannabinoid Receptor 2 using an Image-Based Assay. [Related pubchem assays (depositor defined):AID2013, AID2026]; assay type: functional
[21] = molecular target: T9, G-protein coupled receptor 55 (Homo sapiens, UniProt Q9Y2T6); experiment: inhibition of LPI-stimulated GPR55 beta-arrestin translocation – imaging, U2OS, beta-arrestin-GFP, LPI agonist, primary screen (AID 2013); assay type: functional;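 also: antagonist potency measured as reduced agonist-driven arrestin aggregation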
Cannabinoid receptor 1 [22] = molecular target: T7, Cannabinoid receptor 1; experiment: SAR analysis of antagonists of the Cannabinoid Receptor 1 using an Image-Based Assay - Set 2. [Related pubchem assays (depositor defined):AID2013, AID2026]; assay type: functional
[23] = molecular target: T10, G-protein coupled receptor 35 (Homo sapiens, UniProt Q9HC97); experiment: SAR analysis of Antagonists of the GPR35 Receptor using an Image-Based Assay - Set 3. [Related pubchem assays (depositor defined):AID2013, AID2026]; assay type: functional
Cannabinoid receptor 2 [24] = molecular target: T8, Cannabinoid receptor 2; experiment: SAR analysis of agonists of the Cannabinoid Receptor 2 using an Image-Based Assay. [Related pubchem assays (depositor defined):AID2013, AID2026]; assay type: functional
[25] = molecular target: T10, G-protein coupled receptor 35; experiment: SAR analysis of Agonists of the GPR35 Receptor using an Image-Based Assay - Set 2. [Related pubchem assays (depositor defined):AID2013, AID2026]; assay type: functional
[26] = molecular target: T9, G-protein coupled receptor 55; experiment: blockade of LPI-induced GPR55 arrestin translocation – imaging, U2OS, beta-arrestin-GFP, LPI agonist, set 2, SAR follow-up (AID 2820); assay type: functional

T5 sequence (P41145 whole entry): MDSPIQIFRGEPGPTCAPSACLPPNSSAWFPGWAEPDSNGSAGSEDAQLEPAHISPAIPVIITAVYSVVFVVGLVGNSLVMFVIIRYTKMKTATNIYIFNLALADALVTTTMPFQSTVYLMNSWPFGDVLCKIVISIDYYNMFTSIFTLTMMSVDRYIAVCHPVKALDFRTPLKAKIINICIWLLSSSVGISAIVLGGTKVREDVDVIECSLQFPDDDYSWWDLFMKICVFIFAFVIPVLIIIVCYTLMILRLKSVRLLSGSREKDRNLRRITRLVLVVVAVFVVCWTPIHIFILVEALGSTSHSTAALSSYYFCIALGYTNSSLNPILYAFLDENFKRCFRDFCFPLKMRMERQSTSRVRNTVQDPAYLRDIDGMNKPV
T6 sequence (P35372 whole entry): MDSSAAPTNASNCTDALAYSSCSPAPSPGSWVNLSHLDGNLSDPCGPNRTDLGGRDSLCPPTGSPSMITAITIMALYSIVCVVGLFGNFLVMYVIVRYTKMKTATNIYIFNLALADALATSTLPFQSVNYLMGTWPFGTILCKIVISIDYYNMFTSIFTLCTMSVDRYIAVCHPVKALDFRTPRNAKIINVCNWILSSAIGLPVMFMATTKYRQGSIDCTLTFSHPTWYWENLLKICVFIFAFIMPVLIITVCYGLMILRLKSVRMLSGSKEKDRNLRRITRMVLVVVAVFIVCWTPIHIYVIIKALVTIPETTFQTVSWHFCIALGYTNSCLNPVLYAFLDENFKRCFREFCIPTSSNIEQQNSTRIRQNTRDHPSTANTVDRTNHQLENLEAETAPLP
T9 sequence (Q9Y2T6 whole entry): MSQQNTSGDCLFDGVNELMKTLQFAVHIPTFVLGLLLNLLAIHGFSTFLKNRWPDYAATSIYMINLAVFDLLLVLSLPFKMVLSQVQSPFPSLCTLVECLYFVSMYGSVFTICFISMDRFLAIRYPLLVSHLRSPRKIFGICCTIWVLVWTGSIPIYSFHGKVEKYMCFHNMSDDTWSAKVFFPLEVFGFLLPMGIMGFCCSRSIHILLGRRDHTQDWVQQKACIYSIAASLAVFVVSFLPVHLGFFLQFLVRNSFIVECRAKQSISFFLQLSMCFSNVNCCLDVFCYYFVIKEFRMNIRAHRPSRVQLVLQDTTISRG
T4 sequence (P41143 whole entry): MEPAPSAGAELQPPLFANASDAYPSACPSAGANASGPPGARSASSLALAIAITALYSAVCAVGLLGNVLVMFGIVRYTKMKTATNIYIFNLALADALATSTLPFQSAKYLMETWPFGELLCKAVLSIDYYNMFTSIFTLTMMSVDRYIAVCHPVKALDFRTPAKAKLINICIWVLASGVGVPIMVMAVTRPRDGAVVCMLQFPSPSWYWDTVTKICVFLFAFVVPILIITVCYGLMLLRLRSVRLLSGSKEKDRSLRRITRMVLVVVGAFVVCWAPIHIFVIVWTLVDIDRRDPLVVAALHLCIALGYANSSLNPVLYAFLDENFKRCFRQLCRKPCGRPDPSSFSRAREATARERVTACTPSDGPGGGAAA
T8 sequence (P34972 whole entry): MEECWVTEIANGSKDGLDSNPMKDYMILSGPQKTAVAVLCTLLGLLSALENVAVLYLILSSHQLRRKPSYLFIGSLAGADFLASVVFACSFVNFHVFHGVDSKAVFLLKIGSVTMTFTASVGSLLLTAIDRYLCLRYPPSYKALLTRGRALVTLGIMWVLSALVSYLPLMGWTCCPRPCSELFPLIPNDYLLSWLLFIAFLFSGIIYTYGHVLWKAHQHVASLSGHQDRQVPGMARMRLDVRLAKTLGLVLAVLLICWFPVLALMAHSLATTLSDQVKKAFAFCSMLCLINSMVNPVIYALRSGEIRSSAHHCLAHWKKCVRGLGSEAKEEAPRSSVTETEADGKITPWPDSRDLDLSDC
T3 sequence (P49327 whole entry): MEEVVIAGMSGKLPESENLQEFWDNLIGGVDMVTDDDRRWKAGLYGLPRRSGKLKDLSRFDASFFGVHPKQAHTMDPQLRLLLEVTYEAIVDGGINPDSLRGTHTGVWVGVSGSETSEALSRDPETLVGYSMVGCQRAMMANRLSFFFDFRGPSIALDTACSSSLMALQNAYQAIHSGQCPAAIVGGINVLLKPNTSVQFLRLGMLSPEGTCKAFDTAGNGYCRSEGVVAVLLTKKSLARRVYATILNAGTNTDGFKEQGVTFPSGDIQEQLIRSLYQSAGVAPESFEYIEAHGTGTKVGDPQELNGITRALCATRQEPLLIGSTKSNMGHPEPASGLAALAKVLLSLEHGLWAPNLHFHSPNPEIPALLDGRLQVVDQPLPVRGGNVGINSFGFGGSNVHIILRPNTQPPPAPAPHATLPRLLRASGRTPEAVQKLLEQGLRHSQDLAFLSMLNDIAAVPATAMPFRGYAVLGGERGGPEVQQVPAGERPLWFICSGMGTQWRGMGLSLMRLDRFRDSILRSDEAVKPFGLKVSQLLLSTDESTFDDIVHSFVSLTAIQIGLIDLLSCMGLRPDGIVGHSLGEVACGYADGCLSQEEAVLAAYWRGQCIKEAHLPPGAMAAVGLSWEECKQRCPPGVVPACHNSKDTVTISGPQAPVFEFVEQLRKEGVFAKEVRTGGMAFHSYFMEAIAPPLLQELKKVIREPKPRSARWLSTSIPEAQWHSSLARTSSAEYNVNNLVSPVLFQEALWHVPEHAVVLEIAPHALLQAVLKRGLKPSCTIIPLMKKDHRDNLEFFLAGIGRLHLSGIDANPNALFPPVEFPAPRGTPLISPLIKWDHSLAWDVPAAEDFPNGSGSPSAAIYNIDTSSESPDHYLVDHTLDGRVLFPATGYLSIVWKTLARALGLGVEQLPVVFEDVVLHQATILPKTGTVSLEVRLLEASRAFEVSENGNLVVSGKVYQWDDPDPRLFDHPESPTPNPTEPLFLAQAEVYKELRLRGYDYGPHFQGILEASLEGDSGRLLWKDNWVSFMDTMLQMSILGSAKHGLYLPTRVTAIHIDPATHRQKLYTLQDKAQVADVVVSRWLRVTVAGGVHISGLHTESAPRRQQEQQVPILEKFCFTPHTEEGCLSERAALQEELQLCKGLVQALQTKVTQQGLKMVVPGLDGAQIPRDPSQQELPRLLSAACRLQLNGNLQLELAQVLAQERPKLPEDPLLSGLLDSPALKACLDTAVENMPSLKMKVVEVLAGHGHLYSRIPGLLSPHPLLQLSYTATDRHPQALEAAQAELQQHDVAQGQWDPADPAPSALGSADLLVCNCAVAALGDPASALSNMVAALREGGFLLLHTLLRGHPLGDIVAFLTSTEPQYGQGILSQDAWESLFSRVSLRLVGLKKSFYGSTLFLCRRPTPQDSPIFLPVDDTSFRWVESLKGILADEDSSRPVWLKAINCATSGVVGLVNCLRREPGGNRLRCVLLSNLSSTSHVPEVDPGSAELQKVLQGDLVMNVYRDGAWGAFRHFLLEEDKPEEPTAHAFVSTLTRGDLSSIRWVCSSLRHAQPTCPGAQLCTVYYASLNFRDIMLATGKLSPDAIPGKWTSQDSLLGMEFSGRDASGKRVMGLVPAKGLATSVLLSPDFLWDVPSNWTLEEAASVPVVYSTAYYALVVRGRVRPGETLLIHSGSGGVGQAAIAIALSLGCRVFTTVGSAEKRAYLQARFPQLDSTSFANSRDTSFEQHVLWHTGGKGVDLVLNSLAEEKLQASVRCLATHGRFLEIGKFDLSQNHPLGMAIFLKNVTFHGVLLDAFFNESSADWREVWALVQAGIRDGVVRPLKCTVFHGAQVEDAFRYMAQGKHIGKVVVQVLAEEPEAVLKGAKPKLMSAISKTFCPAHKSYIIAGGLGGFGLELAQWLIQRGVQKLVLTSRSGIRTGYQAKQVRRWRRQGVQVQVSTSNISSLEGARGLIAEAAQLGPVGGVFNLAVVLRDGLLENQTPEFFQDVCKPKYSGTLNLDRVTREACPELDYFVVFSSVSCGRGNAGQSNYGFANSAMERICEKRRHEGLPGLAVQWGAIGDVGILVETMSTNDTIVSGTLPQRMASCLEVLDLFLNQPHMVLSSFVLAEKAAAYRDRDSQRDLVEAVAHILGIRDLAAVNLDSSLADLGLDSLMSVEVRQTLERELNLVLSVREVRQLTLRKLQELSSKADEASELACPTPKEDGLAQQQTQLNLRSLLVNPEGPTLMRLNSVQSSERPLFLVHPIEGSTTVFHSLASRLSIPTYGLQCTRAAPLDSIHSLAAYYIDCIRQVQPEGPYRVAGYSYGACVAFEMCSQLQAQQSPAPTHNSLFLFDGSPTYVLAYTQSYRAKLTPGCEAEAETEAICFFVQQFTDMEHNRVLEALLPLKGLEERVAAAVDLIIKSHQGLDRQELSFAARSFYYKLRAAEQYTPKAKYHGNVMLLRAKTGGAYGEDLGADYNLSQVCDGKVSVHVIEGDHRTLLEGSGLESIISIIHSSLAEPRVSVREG
T7 sequence (P21554 whole entry): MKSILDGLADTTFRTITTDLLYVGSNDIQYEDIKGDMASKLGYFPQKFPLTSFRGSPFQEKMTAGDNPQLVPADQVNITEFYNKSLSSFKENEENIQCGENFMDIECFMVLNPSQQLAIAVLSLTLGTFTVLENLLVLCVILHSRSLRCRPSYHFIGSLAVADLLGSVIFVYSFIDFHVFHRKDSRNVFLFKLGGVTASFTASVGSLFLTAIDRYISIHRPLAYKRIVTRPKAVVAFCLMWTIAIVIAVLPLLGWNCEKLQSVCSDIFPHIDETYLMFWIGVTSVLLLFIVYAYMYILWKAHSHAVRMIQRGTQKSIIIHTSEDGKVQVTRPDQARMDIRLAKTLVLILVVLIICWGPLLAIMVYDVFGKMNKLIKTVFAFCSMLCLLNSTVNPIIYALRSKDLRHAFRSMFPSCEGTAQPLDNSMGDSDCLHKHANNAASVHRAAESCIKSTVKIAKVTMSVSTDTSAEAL

Cc1ccc2nc(O)cc(C(=O)OCC(=O)c3ccccc3)c2c1
inactive: IC50 [1] > 79.4 µM | IC50 [2] > 79.4 µM | IC50 [3] > 79.4 µM

COC(=O)N1C(=O)[C@](c2ccccc2)(C2CCCCC2)N1C(=O)OC
active: IC50 (Fatty acid synthase [4]) 0.929 µM | IC50 (Fatty acid synthase [5]) 0.968 µM | IC50 (H9c2) 25.5 µM
inactive: CC50 [6] > 10 µM | CC50 [7] > 10 µM

Cc1ccc(CN2C3CCCC2CC(NC(=O)c2ccc(C)cc2)C3)cc1 (centres undefined)
6.08: pIC50 [9]
> 120 µM (not active): EC50 (H4) | EC50 [17] | EC50 [18]
inactive: EC50 [8] > 32 µM | IC50 [10] > 32 µM | EC50 [11] > 32 µM | IC50 [12] > 32 µM | EC50 (Mu-type opioid receptor [14]) > 32 µM | IC50 (Mu-type opioid receptor [16]) > 32 µM | EC50 (Beta-galactosidase) > 31.5 µM
active: IC50 [13] 2.62 µM | IC50 [15] 3.28 µM

Cc1cccn2c(=O)c3cc(C(=O)NCc4ccco4)c(=N)n(C4CCCC4)c3nc12
inactive: EC50 (Cannabinoid receptor 1 [19]) > 32 µM | IC50 (Cannabinoid receptor 2 [20]) > 32 µM | IC50 (Cannabinoid receptor 1 [22]) > 32 µM | IC50 [23] > 32 µM | EC50 (Cannabinoid receptor 2 [24]) > 32 µM | EC50 [25] > 32 µM
active: IC50 [21] 1.68 µM | IC50 [26] 0.407 µM
